Our source for the IC50 values is patent US11759462B2, “Spirocyclic compounds as tryptophan hydroxylase inhibitors” (priority 2013, dated 2023).

Read-outs that look alike come from different tables or passages of the source.

In the experiment the target is T1, Recombinant human TPH1 (MBP tagged) (Homo sapiens, UniProt P17752).
T1 construct: cloning full length human TPH1 cDNA in to a bacterial pMAL-c5E expression vector; made in house; host or cells: E. coli BL21 (DE3)
T1 sequence (P17752 1-444): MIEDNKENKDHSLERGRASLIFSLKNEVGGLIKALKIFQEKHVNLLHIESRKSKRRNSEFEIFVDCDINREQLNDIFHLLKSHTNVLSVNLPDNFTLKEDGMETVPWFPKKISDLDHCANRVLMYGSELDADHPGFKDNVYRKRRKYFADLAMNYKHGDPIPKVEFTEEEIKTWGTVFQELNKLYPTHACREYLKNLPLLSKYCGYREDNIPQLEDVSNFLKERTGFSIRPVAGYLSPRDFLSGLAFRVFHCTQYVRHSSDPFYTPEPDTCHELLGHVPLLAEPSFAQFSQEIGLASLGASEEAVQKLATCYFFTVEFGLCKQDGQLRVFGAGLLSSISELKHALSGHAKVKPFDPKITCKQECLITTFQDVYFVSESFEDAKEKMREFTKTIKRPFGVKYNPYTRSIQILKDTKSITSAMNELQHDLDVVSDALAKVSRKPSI
Nature of the experiment: TPH1 in vitro inhibition assay (kinetic fluorescence). The format is biochemical. The essentials:
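Final mix: 15 nM MBP-TPH1, 30 μM Trp, 36 μM 6-methyltetrahydropterin, 25 μM ferrous ammonium sulfate, 50 mM MES pH 7.1, 1% DMSO, room temperature.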

The mark [1] stands for this setting: read-out: TPH1 Range (TPH1 inhibition IC50).
[2] abbreviates: TPH1 Range (TPH1 inhibition IC50).

`Nc1nc(O[C@H](c2ccc(-c3cc(F)cc(F)c3)cc2)C(F)(F)F)cc(N2CCC3(CC2)CN[C@H](C(=O)O)C3)n1` [Example 55ap, (S)-8-(2-amino-6-((R)-1-(3′,5′-difluoro-[1,1′-biphenyl]-4-yl)-2,2,2-trifluoroethoxy)pyrimidin-4-yl)-2,8-diazaspiro[4.5]decane-3-carboxylic acid]: under setting [1], the IC50 – broadly, the concentration that gives 50% inhibition – was 0.05 to 0.3 µM. Turning to `COc1ccc(-c2ccc([C@@H](Oc3cc(N4CCC5(CC4)CN[C@H](C(=O)O)C5)nc(N)n3)C(F)(F)F)cc2)cc1` [Example 55aq, (S)-8-(2-amino-6-((R)-2,2,2-trifluoro-1-(4′-methoxy-[1,1′-biphenyl]-4-yl)ethoxy)pyrimidin-4-yl)-2,8-diazaspiro[4.5]decane-3-carboxylic acid], under setting [1], the IC50 was in the range of 0.05 to 0.3 µM.

For the compound `COc1ccccc1-c1ccc([C@@H](Oc2cc(N3CCC4(CC3)CN[C@H](C(=O)O)C4)nc(N)n2)C(F)(F)F)cc1` [Example 55ar, (S)-8-(2-amino-6-((R)-2,2,2-trifluoro-1-(2′-methoxy-[1,1′-biphenyl]-4-yl)ethoxy)pyrimidin-4-yl)-2,8-diazaspiro[4.5]decane-3-carboxylic acid], the IC50 under setting [1] fell in the range of 0.05 to 0.3 µM. Take `Nc1nc(O[C@H](c2ccc(-c3cccc(C(F)(F)F)c3)cc2)C(F)(F)F)cc(N2CCC3(CC2)CN[C@H](C(=O)O)C3)n1` [Example 55as, (S)-8-(2-amino-6-((R)-2,2,2-trifluoro-1-(3′-(trifluoromethyl)-[1,1′-biphenyl]-4-yl)ethoxy)pyrimidin-4-yl)-2,8-diazaspiro[4.5]decane-3-carboxylic acid]: the IC50 under setting [1] lay within 0.05 to 0.3 µM. On the same count and under the same terms, to `Nc1nc(O[C@H](c2ccc(-c3cccc(OC(F)(F)F)c3)cc2)C(F)(F)F)cc(N2CCC3(CC2)CN[C@H](C(=O)O)C3)n1` [Example 55at, (S)-8-(2-amino-6-((R)-2,2,2-trifluoro-1-(3′-(trifluoromethoxy)-[1,1′-biphenyl]-4-yl)ethoxy)pyrimidin-4-yl)-2,8-diazaspiro[4.5]decane-3-carboxylic acid] belongs 0.05 to 0.3 µM; to `CCOc1cccc(-c2ccc([C@@H](Oc3cc(N4CCC5(CC4)CN[C@H](C(=O)O)C5)nc(N)n3)C(F)(F)F)cc2)c1` [Example 55au, (S)-8-(2-amino-6-((R)-1-(3′-ethoxy-[1,1′-biphenyl]-4-yl)-2,2,2-trifluoroethoxy)pyrimidin-4-yl)-2,8-diazaspiro[4.5]decane-3-carboxylic acid], 0.05 to 0.3 µM; to `CC(C)Oc1cccc(-c2ccc([C@@H](Oc3cc(N4CCC5(CC4)CN[C@H](C(=O)O)C5)nc(N)n3)C(F)(F)F)cc2)c1` [Example 55av, (S)-8-(2-amino-6-((R)-2,2,2-trifluoro-1-(3′-isopropoxy-[1,1′-biphenyl]-4-yl)ethoxy)pyrimidin-4-yl)-2,8-diazaspiro[4.5]decane-3-carboxylic acid], 0.05 to 0.3 µM. The same measure, in the same setting: to `Nc1nc(O[C@H](c2ccc(-c3cccnc3)cc2)C(F)(F)F)cc(N2CCC3(CC2)CN[C@H](C(=O)O)C3)n1` [Example 55aw, (S)-8-(2-amino-6-((R)-2,2,2-trifluoro-1-(4-(pyridin-3-yl)phenyl)ethoxy)pyrimidin-4-yl)-2,8-diazaspiro[4.5]decane-3-carboxylic acid] belongs 0.3 to 3 µM; to `Nc1nc(O[C@H](c2ccc(-c3ccncc3)cc2)C(F)(F)F)cc(N2CCC3(CC2)CN[C@H](C(=O)O)C3)n1` [Example 55ax, (S)-8-(2-amino-6-((R)-2,2,2-trifluoro-1-(4-(pyridin-4-yl)phenyl)ethoxy)pyrimidin-4-yl)-2,8-diazaspiro[4.5]decane-3-carboxylic acid], 0.05 to 0.3 µM; to `Nc1nc(O[C@H](c2ccc(-c3cncnc3)cc2)C(F)(F)F)cc(N2CCC3(CC2)CN[C@H](C(=O)O)C3)n1` [Example 55ay, (S)-8-(2-amino-6-((R)-2,2,2-trifluoro-1-(4-(pyrimidin-5-yl)phenyl)ethoxy)pyrimidin-4-yl)-2,8-diazaspiro[4.5]decane-3-carboxylic acid], 0.3 to 3 µM. Turning to `Cn1ncc2cc(-c3ccc([C@@H](Oc4cc(N5CCC6(CC5)CN[C@H](C(=O)O)C6)nc(N)n4)C(F)(F)F)cc3)ccc21` [Example 55b, (S)-8-(2-amino-6-((R)-2,2,2-trifluoro-1-(4-(1-methyl-1H-indazol-5-yl)phenyl)ethoxy)pyrimidin-4-yl)-2,8-diazaspiro[4.5]decane-3-carboxylic acid], the IC50 under setting [2] was less than 0.05 µM.

For the compound `Cc1nn(C)c2cc(-c3ccc([C@@H](Oc4cc(N5CCC6(CC5)CN[C@H](C(=O)O)C6)nc(N)n4)C(F)(F)F)cc3)ccc12` [Example 55ba, (S)-8-(2-amino-6-((R)-1-(4-(1,3-dimethyl-1H-indazol-6-yl)phenyl)-2,2,2-trifluoroethoxy)pyrimidin-4-yl)-2,8-diazaspiro[4.5]decane-3-carboxylic acid], the IC50 under setting [2] is less than 0.05 µM. Regarding `Cc1c2ccc(-c3ccc([C@@H](Oc4cc(N5CCC6(CC5)CN[C@H](C(=O)O)C6)nc(N)n4)C(F)(F)F)cc3)cc2nn1C` [Example 55bb], under setting [1], the IC50 was less than 0.05 µM.

In the case of `Nc1nc(O[C@H](c2ccc(-c3ccc4ccncc4c3)cc2)C(F)(F)F)cc(N2CCC3(CC2)CN[C@H](C(=O)O)C3)n1` [Example 55be, (S)-8-(2-amino-6-((R)-2,2,2-trifluoro-1-(4-(isoquinolin-7-yl)phenyl)ethoxy)pyrimidin-4-yl)-2,8-diazaspiro[4.5]decane-3-carboxylic acid], under setting [1], the IC50 is less than 0.05 µM. Regarding `CN(C)Cc1ccc(-c2ccc([C@@H](Oc3cc(N4CCC5(CC4)CN[C@H](C(=O)O)C5)nc(N)n3)C(F)(F)F)cc2)cc1` [Example 55bf, (S)-8-(2-amino-6-((R)-1-(4′-((dimethylamino)methyl)-[1,1′-biphenyl]-4-yl)-2,2,2-trifluoroethoxy)pyrimidin-4-yl)-2,8-diazaspiro[4.5]decane-3-carboxylic acid], the IC50 under setting [1] fell in the range of 0.05 to 0.3 µM. As to `Nc1nc(O[C@H](c2ccc(-c3ccc4cccnc4c3)cc2)C(F)(F)F)cc(N2CCC3(CC2)CN[C@H](C(=O)O)C3)n1` [Example 55bh, (S)-8-(2-amino-6-((R)-2,2,2-trifluoro-1-(4-(quinolin-7-yl)phenyl)ethoxy)pyrimidin-4-yl)-2,8-diazaspiro[4.5]decane-3-carboxylic acid], under setting [1], the half-inhibitory concentration (IC50) fell in the range of 0.05 to 0.3 µM. With `Nc1nc(O[C@H](c2ccc(-c3ccc4nccnc4c3)cc2)C(F)(F)F)cc(N2CCC3(CC2)CN[C@H](C(=O)O)C3)n1` [Example 55bi, (S)-8-(2-amino-6-((R)-2,2,2-trifluoro-1-(4-(quinoxalin-6-yl)phenyl)ethoxy)pyrimidin-4-yl)-2,8-diazaspiro[4.5]decane-3-carboxylic acid], the half-maximal inhibitory concentration (IC50) under setting [1] was less than 0.05 µM.

Take `CN1CCc2cc(-c3ccc([C@@H](Oc4cc(N5CCC6(CC5)CN[C@H](C(=O)O)C6)nc(N)n4)C(F)(F)F)cc3)ccc2C1=O` [Example 55bj, (S)-8-(2-amino-6-((R)-2,2,2-trifluoro-1-(4-(2-methyl-1-oxo-1,2,3,4-tetrahydroisoquinolin-6-yl)phenyl)ethoxy)pyrimidin-4-yl)-2,8-diazaspiro[4.5]decane-3-carboxylic acid]: the concentration for half-maximal inhibition (IC50) under setting [2] was less than 0.05 µM. On to `Nc1nc(O[C@H](c2ccc(-c3ccc4ncncc4c3)cc2)C(F)(F)F)cc(N2CCC3(CC2)CN[C@H](C(=O)O)C3)n1` [Example 55bk, (S)-8-(2-amino-6-((R)-2,2,2-trifluoro-1-(4-(quinazolin-6-yl)phenyl)ethoxy)pyrimidin-4-yl)-2,8-diazaspiro[4.5]decane-3-carboxylic acid], for which the IC50 under setting [1] lay within 0.05 to 0.3 µM. On to `COc1cc(F)ccc1-c1ccc([C@@H](Oc2cc(N3CCC4(CC3)CN[C@H](C(=O)O)C4)nc(N)n2)C(F)(F)F)cc1` [Example 55bl, (S)-8-(2-amino-6-((R)-2,2,2-trifluoro-1-(4′-fluoro-2′-methoxy-[1,1′-biphenyl]-4-yl)ethoxy)pyrimidin-4-yl)-2,8-diazaspiro[4.5]decane-3-carboxylic acid], for which the IC50 under setting [1] fell in the range of 0.3 to 3 µM. For the compound `COc1cccc(-c2ccc([C@@H](Oc3cc(N4CCC5(CC4)CN[C@H](C(=O)O)C5)nc(N)n3)C(F)(F)F)cc2)c1F` [Example 55bm, (S)-8-(2-amino-6-((R)-2,2,2-trifluoro-1-(2′-fluoro-3′-methoxy-[1,1′-biphenyl]-4-yl)ethoxy)pyrimidin-4-yl)-2,8-diazaspiro[4.5]decane-3-carboxylic acid], the IC50 under setting [1] was 0.3 to 3 µM. Still for that read-out and setting: to `COc1ccc(F)c(-c2ccc([C@@H](Oc3cc(N4CCC5(CC4)CN[C@H](C(=O)O)C5)nc(N)n3)C(F)(F)F)cc2)c1` [Example 55bn, (S)-8-(2-amino-6-((R)-2,2,2-trifluoro-1-(2′-fluoro-5′-methoxy-[1,1′-biphenyl]-4-yl)ethoxy)pyrimidin-4-yl)-2,8-diazaspiro[4.5]decane-3-carboxylic acid] belongs 3 to 10 µM; to `Cc1ccc(-c2ccc([C@@H](Oc3cc(N4CCC5(CC4)CN[C@H](C(=O)O)C5)nc(N)n3)C(F)(F)F)cc2)cn1` [Example 55bo, (S)-8-(2-amino-6-((R)-2,2,2-trifluoro-1-(4-(6-methylpyridin-3-yl)phenyl)ethoxy)pyrimidin-4-yl)-2,8-diazaspiro[4.5]decane-3-carboxylic acid], 0.05 to 0.3 µM.
